pEC50: −log10 of the molar value.
Legend:
[1] = tested on: HL-60 cells; test: Differentiation of HL-60 cells by nitroblue tetrazolium (NBT) reduction; format: cell-based, human (patient)
Method: (§1) Cultures of HL-60 cells were established in the absence (control) or presence of various concentrations of the test compound. […] Proliferation was assessed by directly enumerating the increased number of tumor cells resulting from incubation. Viability was determined by dye exclusion technique to learn whether any of the compounds were lethal to cultured HL-60 cells. Cellular differentiation was evaluated by determining the number of cells which had acquired the enzymes necessary to support a respiratory burst and the functional ability to phagocytose (bind/internalize) particulate material from their environment; both activities being characteristic of mature macrophages and granulocytes,
(§2) Experimental compounds were dissolved in sufficient ethanol to yield stock solutions of 1×10^-2 molar. Reduced lighting was employed when working with compounds and stock solutions were stored in the dark at -20° in an argon atmosphere. Compounds were diluted with tissue culture medium and added to flasks containing HL-60 cells to achieve the final concentrations described in each experiment.
(§3) The promyelocytic (HL-60) tumor cell line was derived from a patient with acute promyelocytic leukemia. HL-60 cells were maintained in liquid culture by serial weekly passage in tissue culture medium. In any experiment, three replicate flasks were incubated without compound (control) or in the presence of varying concentrations of compound. […]
Quantitation of differentiated cells was done by the biochemical method of nitroblue tetrazolium (NBT) reduction. Sufficient cells were pooled from replicate cultures, centrifuged at 220×g, washed once with serum-free tissue culture medium, and resuspended to 1×10^6 cells per ml in Ca^++ --Mg^++ -deficient phosphate buffered saline (prepared by supplementing Ca^++ --Mg^++ -free phosphate buffered saline (PBS) to 10% v/v with heat-inactivated fetal bovine serum). Nitroblue tetrazolium was dissolved at 1 mg per ml in Ca^++ --Mg^++ -deficient PBS with gentle heating and mixing. Tetradecanoyl phorbol acetate (TPA) was dissolved at 1 mg per ml in ethanol and stored at -20° C. Just prior to use, a working solution of TPA was prepared by diluting the stock concentration 100-fold with Ca^++ --Mg^++ -deficient PBS. The test was done in 12×75 mm tubes by adding 0.5 ml Ca^++ --Mg^++ -deficient PBS, 1.0 ml of HL-60 cells, 0.5 ml of NBT solution, and 0.02 ml of the working TPA solution. After mixing, the tubes were incubated in a 37° water bath for 25 minutes then transferred to ice. Undifferentiated and differentiated cells present in any sample were determined microscopically by surveying 200-400 cells per sample or by cytofluorograph by surveying greater than 30,000 cells. Cells without pigmented granules (clear cells) were judged to be undifferentiated while those containing greater than 3 blue-black formazan granules were scored as differentiated. […] Results are expressed as the percentage of differentiated cells present in any sample as calculated according to the formula: [formula]

[2] = tested on: HL-60 cells; test: Differentiation of HL-60 cells by phagocytosis; format: cell-based, human (patient)
Method: as §1
Tissure culture medium used in these experiments was RPM1-1640 supplemented prior to use to 10% v/v with fetal bovine serum (heat inactivated at 56° for 30 minutes), to 130 units per ml with penicillin and 130 μg per ml with streptomycin, and to an additional 1.6 millimolar with L-glutamine.
as §2, §3
Quantitation of differentiated HL-60 cells on a functional basis was done by enumerating the number of cells in any sample which had acquired the ability to phagocytose (bind/internalize) particulate material from their environment, a characteristic of mature macrophages and granulocytes. Sufficient cells were pooled from replicate cultures, centrifuged at 200×g, washed once with serum-free tissue culture medium, and resuspended to 1×10^6 cells per ml in serum-free tissue culture medium. To a 1.0 ml sample in 12×75 mm tubes was added 0.1 ml of a 1:10 dilution from stock of fluorescent microspheres obtained as a gift from Dr. William Dreyer at the California Institute of Technology. Latex beads, yeast cells or red blood cells may also be used in place of fluorescent microsphere in this step. Cells and particle were mixed, incubated for 15 minutes in a 37° water bath, collected in a transfer pipet, and overlayed onto a 5 ml cushion of fetal bovine serum in a 15 ml conical culture tube. After centrifugation at 150×g for 8 minutes, the excess particulate (upper layer) was discarded as was the remainder of the serum cushion leaving only a cell pellet and cell-associated particulate. The resultant pellets were resuspended in 1.0 ml of tissue culture medium containing 10% fetal bovine serum, transferred to a hemacytometer, and evaluated microscopically using both ultraviolet and visible light sources. Undifferentiated and differentiated cells present in any sample were determined microscopically by surveying 200-400 cells per sample. Non-fluorescent cells, identified only by visible light, were judged to be undifferentiated. Generally, differentiated cells were intensely fluorescent clearly indicating extensive phagocytosis of particulate material. Results are expressed as the percentage of differentiated cells present in any sample as calculated according to the formula: [formula]

[3] = Antirachitogenic increase in tibia ash in chicks on vitamin D-deficient diet; format: in vivo, chick (White Leghorn cockerels)
Method: **Oneday-old White Leghorn cockerels were placed on a vitamin Ddeficient
diet which contained 1% calcium and 0.7% phosphorus and were housed under
ultravioletfree lighting (General Electric F40G0 gold fluorescent lights)
The test compound was dissolved in propylene glycol and administered
orally in a volume of 0.2 ml/day for 21 consecutive days. Controls were
treated with vehicle alone. Chicks were autopsied on the day after the […]

## C=C(C)[C@H](O)CC[C@@H](C)[C@H]1CC[C@H]2/C(=C/C=C3/C[C@@H](O)C[C@H](O)C3=C)CCC[C@]12C [25,26-dehydro-1α,24R-dihydroxycholecalciferol]
[1]; 45 × 10^-9 molar, day 3
  diff. cells / total (NBT reduction): 14932/30509
[1]; 45 × 10^-9 molar, day 4
  % diff. (NBT reduction): 60%
  diff. cells / total (NBT reduction): 20003/33311
[1]; 45 × 10^-9 molar, day 6
  % diff. (NBT reduction): 63%
  diff. cells / total (NBT reduction): 22787/36263
[1]; 90 × 10^-9 molar, day 3
  % diff. (NBT reduction): 62%
  diff. cells / total (NBT reduction): 29458/47866
[1]; 90 × 10^-9 molar, day 4
  % diff. (NBT reduction): 73%
  diff. cells / total (NBT reduction): 30230/41142
[1]; 90 × 10^-9 molar, day 6
  % diff. (NBT reduction): 79%
  diff. cells / total (NBT reduction): 35708/45388
[1]; Homo sapiens, 96 h, HL-60 cells, NBT test, read-out: HL-60 Test Differentiation NBT Test ED50
  pEC50: 7.52
[1]; compared with 1α,25-dihydroxycholecalciferol
  induction of cellular differentiation: induced cellular differentiation in a dose dependent fashion
[1]; of that of 1α,25-dihydroxycholecalciferol
  potency relative to 1α,25-dihydroxycholecalciferol (cellular differentiation): 40%
[2]; 5 × 10^-9 molar, day 3
  % diff. (Phagocytosis): 7%
  diff. cells / total (Phagocytosis): 24/329
[2]; 5 × 10^-9 molar, day 4
  % diff. (Phagocytosis): 10%
  diff. cells / total (Phagocytosis): 22/223
[2]; 5 × 10^-9 molar, day 6
  % diff. (Phagocytosis): 16%
  diff. cells / total (Phagocytosis): 45/290
[2]; 15 × 10^-9 molar, day 3
  % diff. (Phagocytosis): 24%
  diff. cells / total (Phagocytosis): 76/324
[2]; 15 × 10^-9 molar, day 4
  % diff. (Phagocytosis): 29%
  diff. cells / total (Phagocytosis): 96/332
[2]; 15 × 10^-9 molar, day 6
  % diff. (Phagocytosis): 25%
  diff. cells / total (Phagocytosis): 83/333
[2]; 45 × 10^-9 molar, day 3
  % diff. (Phagocytosis): 53%
  diff. cells / total (Phagocytosis): 174/329
[2]; 45 × 10^-9 molar, day 4
  % diff. (Phagocytosis): 70%
  diff. cells / total (Phagocytosis): 206/296
[2]; 45 × 10^-9 molar, day 6
  % diff. (Phagocytosis): 79%
  diff. cells / total (Phagocytosis): 176/223
[2]; 90 × 10^-9 molar, day 3
  % diff. (Phagocytosis): 69%
  diff. cells / total (Phagocytosis): 181/261
[2]; 90 × 10^-9 molar, day 4
  % diff. (Phagocytosis): 86%
  diff. cells / total (Phagocytosis): 219/255
[2]; 90 × 10^-9 molar, day 6
  % diff. (Phagocytosis): 96%
  diff. cells / total (Phagocytosis): 200/218
[2]; compared with control cultures
  cells capable of phagocytosis: dose-related increase in the proportion of cells capable of phagocytosis
[3]; 300 ng, orally, 21 consecutive days
  Antirachitogenic Increase in Tibia Ash in Chicks: 20%
[3]; than for 1α,25-dihydroxycholecalciferol, as indicated by increase in tibia ash weight in chicks
  potential for hypercalcemia: much less
